Reference: US20220304929A1, “LIPIDS FOR DELIVERY OF CHARGED MATERIAL, FORMULATIONS THEREOF AND METHOD FOR MAKING SAME” (INTEGRATED NANOTHERAPEUTICS INC., priority 2019, published 2022)
Entries after “also recorded” stand apart in the source; their conditions may differ.

Columns and labels:
[1] = LNP particle size and polydispersity by dynamic light scattering; format: physicochemical
[2] = Apparent pKa of LNP systems (TNS fluorescence assay); format: physicochemical; settings: LNP containing ionizable lipid and FVII siRNA
Protocol: Apparent acid dissociation constants (pKa) of LNP systems were determined according to a procedure described in the literature (Jayaraman, M., et al., Maximizing the potency of siRNA lipid nanoparticles for hepatic gene silencing in vivo. Angewandte Chemie, 2012. 51(34): p. 8529-33). Briefly, 2-(p-toluidino)-6-napthalene sulfonic acid (TNS, Sigma-Aldrich, St. Louis, Mo.) and LNP were diluted in buffer (10 mM HEPES, 10 mM MES and 10 mM ammonium acetate) with pH ranges from 2.5 to 11. Final concentration of TNS or total lipid was 6 μM. Samples were then mixed and fluorescence intensity was measured (Ex/Em: 321/445 nm) using a Perkin Elmer LS55. A sigmoidal best fit analysis was applied and the pKa was measured as the pH at half-maximal fluorescence intensity.

factor VII (FVII) = assay: LNP-siRNA activity in the mouse Factor VII model; format: in vivo; settings: C57Bl/6 mice, 24 hours post-injection; for Activity in mediating FVII gene-silencing (residual serum FVII levels): i.v. tail vein, 0.03-0.3 mg/kg siRNA
Protocol: Lipid nanoparticle (LNP) formulations containing cationic lipids of the disclosure and FVII siRNA were injected via a tail vein in C57Bl/6 wild-type mice and the levels of FVII in plasma was measured post injection. The mice were injected with LNP-siRNA at doses of 0.03 (left bar), 0.1 (middle bar) and 0.3 mg/kg (right bar). The cationic lipids incorporated in the LNPs were INT-A001, INT-A002, INT-A003 and INT-A007.
LNPs prepared as described in Example 2 containing siRNA against factor VII (FVII) were diluted with PBS such that injection volumes were maintained at 10 mL/kg body weight and administered (based on siRNA concentration) intravenously via tail vein in 6 to 8 weeks old female C57Bl/6 mice (Charles River Laboratories, Wilmington, Mass.). At 24 hours post-injection, animals were euthanized and blood was collected via intracardiac sampling. Blood samples were allowed to coagulate at 4° C. overnight and the serum was separated followed by centrifugation for 15 min at 12,000 rpm. The serum FVII levels were determined using the Biophen VII chromogenic assay (Aniara, Mason, Ohio) according to the protocol of the manufacturer.

[3] = RNA or antisense oligonucleotide encapsulation efficiency (Quant-iT Ribogreen RNA / Oligreen ssDNA assays); format: physicochemical
Protocol: The RNA or antisense oligonucleotide encapsulation efficiency was determined using the Quant-iT Ribogreen RNA or Oligreen ssDNA Assays, respectively (Life Technologies, Burlington, ON). Briefly, LNP was incubated at 37° C. for 10 min in the presence or absence of 1% Triton X-100 (Sigma-Aldrich, St. Louis, Mo.) followed by the addition of the Ribogreen or Oligreen reagent. The fluorescence intensity (Ex/Em: 480/520 nm) was determined and samples treated with Triton X-100 represent total nucleic acid while untreated samples represent unencapsulated nucleic acid.
To prepare the LNPs, ionizable lipid, DSPC, cholesterol and PEG-DMPE were dissolved in ethanol. The siRNA was dissolved in pH 4.0-6.2 buffer composed of 10-50 mM acetate, succinate or citrate. In select cases, 10-50 mM 4-(2-Hydroxyethyl)piperazine-1-ethanesulfonic acid (HEPES) or 2-(N-Morpholino)ethanesulfonic acid (MES) buffer was used. LNP were prepared by rapidly mixing the lipid components in ethanol (in molar ratio of 50/10/38.5/1.5 of […]) with nucleic acids in aqueous buffer at a volumetric flow rate ratio of 1:3 (ethanol to aqueous, combined flow rate >12 mL/min) at room temperature. Typically, siRNA/lipids ratios were targeted for 0.056 wt/μmol. The product was then dialyzed against 1× phosphate-buffered saline (PBS) at pH 7.4 for 24 hours to remove residual ethanol and to raise the pH. PBS was refreshed after 4 hours.

[4] = Peptide incorporation into LNP (Peptide:Lipid ratio; BCA or CBQCA protein quantification); format: physicochemical
Protocol: (§1) Lipid concentrations were determined by measuring total cholesterol using the Cholesterol E enzymatic assay kit from Wako Chemicals USA (Richmond, Va.).
Quantification of protein/peptide was performed with the use of either the BCA Protein Assay (Pierce) or the CBQCA Protein Quantitation Kit (Invitrogen) according to the manufacturer's instructions.

HepG2 cells = assay: LNP luciferase mRNA expression in cultured HepG2 cells; format: cell-based; settings: 0.125-1 μg/mL luciferase mRNA, 16-24 hr
Protocol: Cells were treated with LNP formulations containing ionizable lipids of the disclosure and luciferase mRNA at concentrations of 0.125-1 μg/mL. The level of luminescence was measured post treatment. From left-to-right, the ionizable lipids incorporated in the LNPs were INT-A001 (white bar), INT-A002 (dotted bar), INT-A003 (black bar) and INT-A004 (gray bar).
The activity of the ionizable lipids in vitro was evaluated in cultured HepG2 cells. LNPs containing Firefly Luciferase mRNA were prepared as described in Example 2. LNPs were diluted to 0.125-1 μg/mL with DMEM media containing 10% FBS and incubated with HepG2 cells for 16-24 hr. Cells were then lysed with Glo-Lysis Buffer (Promega). Equal amounts of Steady-Glo reagent (Promega) was added to each sample and the level of luminescence was determined using a Synergy LX plate reader (BioTek).

[5] = tested on: Firefly Luciferase mRNA expression in liver; assay: LNP luciferase mRNA expression in vivo in the liver of mice; design: species or system mouse; settings: C57Bl/6 mice, 1 mg/kg mRNA i.v., liver at 4 hours post-injection
Protocol: Lipid nanoparticle (LNP) formulations containing cationic lipids of the disclosure and Luciferase mRNA were injected via a tail vein in C57Bl/6 wild-type mice at mRNA dose of 1 mg/kg and the luminescence in the liver was measured post injection. From left-to-right, the cationic lipids incorporated in the LNP-mRNA were INT-A001, INT-A002, INT-A003 and INT-A004. Untreated animals were injected with phosphate buffered saline (PBS).
To assess in vivo activity, LNPs containing Firefly Luciferase mRNA were prepared as described in Example 2. LNPs were diluted with PBS and administered at 1 mg/kg intravenously via tail vein in 6 to 8 weeks old female C57Bl/6 mice (Charles River Laboratories, Wilmington, Mass.). At 4 hours post-injection, animals were euthanized and the livers were collected. Approximately 100 mg of liver was homogenized in 0.5 mL Glo Lysis Buffer (Promega). The homogenate was further diluted 1:4 with the lysis buffer and then 50 μL of diluted homogenate was added to 50 μL Steady-Glo reagent (Promega). The level of luminescence was determined using a Synergy LX plate reader (BioTek).

[6] = HA incorporation into LNP (HA:Lipid ratio); format: physicochemical; settings: LNP containing ionizable lipid and HA (8-15 kDa)
Protocol: as §1
Hyaluronic acid was used as an example of anionic cargos. LNPs were prepared as described in Example 2 containing HA with a molecular weight of 8-15 kDa.

[7] = LNP containing ionizable lipid and Luciferase mRNA
[8] = LNP containing ionizable lipid and a 4.2 kDa acidic peptide (net charge -3)
[9] = LNP containing ionizable lipid and antisense oligonucleotide
[10] = LNP containing ionizable lipid and siRNA
[11] = LNP containing ionizable lipid and HA (8-15 kDa)
[12] = LNP containing ionizable lipid and a 2.0 kDa acidic peptide (net charge -3)
[13] = LNP containing ionizable lipid and a 2.0 kDa basic peptide (net charge +4)

SMILES | Particle Diameter [1, 7] | Polydispersity index (PDI) [1, 7] | Particle Diameter [1, 8] | Polydispersity index (PDI) [1, 8] | Particle Diameter [1, 9] | Polydispersity index (PDI) [1, 9] | Particle Diameter [1, 10] | Polydispersity index (PDI) [1, 10] | Apparent pKa [2] | Encapsulation Efficiency [3, 7] | Encapsulation Efficiency [3, 9] | Encapsulation Efficiency [3, 10] | Peptide:Lipid [4, 8] | HA:Lipid [6] | Particle Diameter [1, 11] | Polydispersity index (PDI) [1, 11] | Particle Diameter [1, 12] | Activity in mediating FVII gene-silencing (residual serum FVII levels) (factor VII (FVII)) | Activity in delivering mRNA and inducing its expression in vitro (luminescence) (HepG2 cells) | Activity in delivering mRNA and inducing mRNA expression in vivo (liver luminescence) [5] | further results
CCCCC/C=C\C/C=C\CCCCCCCC(=O)O[C@@H](CCCCCCCC)[C@@H](CCCCCCCC(=O)OCCN(C)C)OC(=O)CCCCCCC/C=C\C/C=C\CCCCC (racemic) [INT-A001, 2-(Dimethylamino)ethyl (±)-syn-9,10-dilinoleoxystearate] | 43 nm | 0.064 | 48 nm | 0.021 | 44 nm | 0.103 | 50 nm | 0.059 | 6.3 | 96% | 84% | 89% | 0.161 wt/wt | – | – | – | – | active in mediating gene-silencing | can effectively deliver mRNA | can effectively deliver mRNA | –
CCCCC/C=C\C/C=C\CCCCCCCC(=O)O[C@@H](CCCCCCCC)[C@@H](CCCCCCCC(=O)OCCCN(CC)CC)OC(=O)CCCCCCC/C=C\C/C=C\CCCCC (racemic) [INT-A002, 3-(Diethylamino)propyl (±)-syn-9,10-dilinoleoxystearate] | 47 nm | 0.053 | 62 nm | 0.015 | 49 nm | 0.096 | 52 nm | 0.063 | – | 99% | 92% | 97% | 0.157 wt/wt | 0.093 wt/wt | 83 nm | 0.027 | – | active in mediating gene-silencing; also recorded: most active | can effectively deliver mRNA | – | ED 50 (effective dose to achieve 50% gene-silencing) (factor VII (FVII); i.v. LNP FVII siRNA, estimated): less than 0.1 mg/kg; Activity in delivering mRNA and inducing mRNA expression in vivo (liver luminescence) ([5]; 1 mg/kg): can effectively deliver mRNA; also recorded: most active
CCCCC/C=C\C/C=C\CCCCCCCC(=O)O[C@@H](CCCCCCCC)[C@@H](CCCCCCCC(=O)O)OC(=O)CCCCCCC/C=C\C/C=C\CCCCC (racemic) [INT-A008, (±)-syn-9,10-Dilinoleoxystearic Acid] | – | – | – | – | – | – | – | – | – | – | – | – | – | – | – | – | – | – | – | – | Particle Diameter [1, 13]: 39 nm; Polydispersity index (PDI) [1, 13]: 0.058; Peptide:Lipid [4, 13]: 0.104 wt/wt
CCCCCCCCC(CCCCCC)C(=O)O[C@@H](CCCCCCCC)[C@@H](CCCCCCCC(=O)O)OC(=O)C(CCCCCC)CCCCCCCC (mixture of isomers) [INT-A009, (±)-syn-9,10-Bis(2-hexyldecanoyloxy)stearic Acid] | – | – | – | – | – | – | – | – | – | – | – | – | – | – | – | – | – | – | – | – | Particle Diameter [1, 13]: 39 nm; Polydispersity index (PDI) [1, 13]: 0.057; Peptide:Lipid [4, 13]: 0.121 wt/wt

The next lines start with results.

Particle Diameter [1, 7] | Polydispersity index (PDI) [1, 7] | Particle Diameter [1, 8] | Polydispersity index (PDI) [1, 8] | Particle Diameter [1, 9] | Polydispersity index (PDI) [1, 9] | Particle Diameter [1, 10] | Polydispersity index (PDI) [1, 10] | Apparent pKa [2] | Encapsulation Efficiency [3, 7] | Encapsulation Efficiency [3, 9] | Encapsulation Efficiency [3, 10] | Peptide:Lipid [4, 8] | HA:Lipid [6] | Particle Diameter [1, 11] | Polydispersity index (PDI) [1, 11] | Particle Diameter [1, 12] | SMILES | Activity in mediating FVII gene-silencing (residual serum FVII levels) (factor VII (FVII)) | Activity in delivering mRNA and inducing its expression in vitro (luminescence) (HepG2 cells) | Activity in delivering mRNA and inducing mRNA expression in vivo (liver luminescence) [5] | further results
49 nm | 0.050 | 76 nm | 0.031 | 54 nm | 0.036 | 55 nm | 0.043 | – | 99% | 89% | 92% | 0.160 wt/wt | 0.094 wt/wt | 64 nm | 0.035 | 142 nm | CCCCC/C=C\C/C=C\CCCCCCCC(=O)O[C@@H](CCCCCCCC)[C@@H](CCCCCCCC(=O)OCCCN(C)C)OC(=O)CCCCCCC/C=C\C/C=C\CCCCC (racemic) [INT-A003, 3-(Dimethylamino)propyl (±)-syn-9,10-dilinoleoxystearate] | active in mediating gene-silencing | can effectively deliver mRNA; also recorded: most active | can effectively deliver mRNA | Polydispersity index (PDI) [1, 12]: 0.025; Peptide:Lipid [4, 12]: 0.074 wt/wt
42 nm | 0.090 | 40 nm | 0.034 | 45 nm | 0.065 | 58 nm | 0.024 | 5.8 | 96% | 88% | 61% | 0.158 wt/wt | – | – | – | 59 nm | CCCCC/C=C\C/C=C\CCCCCCCC(=O)O[C@@H](CCCCCCCC)[C@@H](CCCCCCCC(=O)OCCN(CC)CC)OC(=O)CCCCCCC/C=C\C/C=C\CCCCC (racemic) [INT-A004, 2-(Diethylamino)ethyl (±)-syn-9,10-dilinoleoxystearate] | – | can effectively deliver mRNA | can effectively deliver mRNA | Polydispersity index (PDI) [1, 12]: 0.051; Peptide:Lipid [4, 12]: 0.073 wt/wt
